The subject of series [1] is Leaf disks of transgenic Nicotiana tabacum lines IGPD-C, E, and G. Nature of the series: Leaf disk growth (weight) on MS agar containing IGPD inhibitor, transgenic lines versus wild type. The series is classed as in vivo, Nicotiana tabacum cv. Xanthi-nc. The conditions noted are these: 30 ppm inhibitor on MS agar, after three weeks. An excerpt: Leaf disks of Nicotiana tabacum cv. Xanthi-nc were infected with A. tumefaciens CIB542 harboring pCIB200IGPD as described by Horsch et al, Science 227:1229 (1985). Kanamycin-resistant shoots from 15 independent leaf disks were transferred to rooting medium, then transplanted to soil and the resulting plants grown to maturity in the greenhouse. Seed from these plants were collected and germinated on MS agar medium containing kanamycin. Ten individual kanamycin resistant seedlings from each independent primary transformant were grown to maturity in the greenhouse, and their seed collected. These seeds were germinated on MS agar medium conta/ning kanamycin.
Plant lines that gave rise to exclusively kanamycin resistant seedlings were homozygous for the inserted gene and were subjected to further analysis. Leaf disks of each of the 15 independent transgenie lines were excised with a paper punch and placed onto MS agar containing 0 or 30 ppm of a specific IGPD inhibitor represented by formula (II), namely: [drawing 11] After three weeks, two sets of 10 disks from each line were weighed, and the results recorded. Transgenie lines designated IGPD-C, E, and G were approximately 3-fold more resistant to the inhibitor than wild type, non-transformed plants.

The subject of series [2] is IGPD-G (IGPD-overexpressing line). Nature of the series: Greenhouse plants treated with inhibitor, health visually scored. Details: key: 1 = severe stunting, severe chlorosis combined with necrosis; 2 = severe stunting, some interveinal chlorosis; 3 = moderate stunting, some interveinal chlorosis, pinnate leaves; 4 = moderate stunting, normal leaf morphology; 5 = healthy, with no symptoms. The series is classed as in vivo, Nicotiana tabacum cv. Xanthi-nc. The protocol: (§1) To further evaluate resistance of the IGPD-overexpressing line IGPD-G, plants were grown in the greenhouse and treated with various concentrations of the inhibitor IRL 1803. After treatment, plants were photographed, and their health was visually scored.

Series [3] deals with Xanthi (untransformed). The series is described as above. Details: key: 1 = severe stunting, severe chlorosis combined with necrosis; 2 = severe stunting, some interveinal chlorosis; 3 = moderate stunting, some interveinal chlorosis, pinnate leaves; 4 = moderate stunting, normal leaf morphology; 5 = healthy, with no symptoms. The series is classed as in vivo, Nicotiana tabacum cv. Xanthi-nc. Here is the method: as §1

Series [4] concerns wheat germ IGPD. Nature of the series: IGPD enzyme activity / inhibitor assay with purified wheat germ IGPD. The series is classed as biochemical. Here is the method: Purified IGPD may be used in assays to discover novel inhibitors of the enzyme, which inhibitors potentially would function as commercially viable herbicides. Typically, the inhibitory effect of a chemical on IGPD is determined by the absorbance difference at 370 nm using an absorbance coefficient of 10,400, which signifies the production of IAP from IGP. See, Ames et al., J. Biol. Chem. 212:687-697 (1957). Inhibitor solutions in various concentrations, e.g. 1 mM, 100 μM, 10 μM, and 1 μM, are added to the reaction mixture prior to the initiation of the enzyme reaction. A representative reaction mixture contains 50 mM Bis-Tris-propane-HCl (pH 6.6), 100 mM 2-mercaptoethanol, 1 mM MnCl2, 1 mM IGP, and between 2 and 5 mU of IGPD. Once IGP is added, the reaction is rim at 30° C., and is stopped by the addition of perchlorie acid up to 10% volume of the reaction mixture. […] Five volumes of 5N NaOH are added to the solution, and after two minutes, enolized IA is measured spectroscopically. […]
IGPD activity was determined by measuring imidazoleacetol obtained by hydrolyzing IAP. […] Five volumes of 5N NaOH were added to the solution, and after 2 minutes, the concentration of enolized imidazoleacetol was determined from the absorbance at 370 nm using the absorbance coefficient of 10,400 (Ames and Mitchell, 1955). […]

Each structure is given as a SMILES string.

With `O=P(O)(O)C1CCCC(O)(c2ncn[nH]2)C1` (stereo not shown), the “resistance to the inhibitor relative to wild type, non-transformed plants (leaf disk weight)” value in series [1] is “approximately 3 fold”.

As for `O=P(O)(O)[C@@H]1CCC[C@](O)(c2ncn[nH]2)C1` [IRL 1803], the “Visual Score after Treatment” value was 4 in series [2] (1000 ppm), 2 in series [2] (10000 ppm), 3 in series [3] (1000 ppm) and 1 in series [3] (10000 ppm).

Consider `[Mn+2]` [manganese ions], for which, in series [4] (manganese ions at a concentration of 0.5 mM), the “enhancement of the activity of the enzyme” value came to 7 fold. Besides, in series [4] (read-out: Km value for Mn2+), the Km (as a rule, the substrate concentration at which the rate is half of its maximum) was ~110 µM.

These data come from patent publication US5541310A, “Herbicide resistant plants” (Ciba-Geigy Corporation, priority 1994, dated 1996).
